Experimental data from PubChem BioAssay AID248 (DTP/NCI, 2004).
“And” between values parts separate entries of the source, which are not always exact repeats. Equal entries are not always repeated. Toxic doses and inconclusive results are not listed. Rule as the data show it: active = T/C of 150% or more; inactive = T/C below 125%.

Tested on: L1210 leukemia ip in BDF1 mice, survival T/C
Assay: NCI In Vivo Anticancer Drug Screen. Data for tumor model L1210 Leukemia (intraperitoneal) in B6D2F1 (BDF1) mice
Settings: higher = longer survival
Method in brief: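 Transplanted-tumor mice were given test agent; controls received vehicle only. Survival readings from the two groups were divided (treated over control).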

[1] = endpoint: mean survival time, dose: 100.0 mg/kg/injection, schedule: Q01DX001 (ip), vehicle: saline with Tween-80
[2] = endpoint: mean survival time, dose: 200.0 mg/kg/injection, schedule: Q01DX001 (ip), vehicle: saline with Tween-80
[3] = endpoint: mean survival time, dose: 50.0 mg/kg/injection, schedule: Q01DX009 (ip), vehicle: saline with Tween-80
[4] = endpoint: mean survival time, dose: 100.0 mg/kg/injection, schedule: Q01DX009 (ip), vehicle: saline with Tween-80
[5] = endpoint: mean survival time, dose: 100.0 mg/kg/injection, schedule: Q04DX003 (ip), vehicle: saline with Tween-80
[6] = endpoint: mean survival time, dose: 200.0 mg/kg/injection, schedule: Q04DX003 (ip), vehicle: saline with Tween-80
[7] = endpoint: mean survival time, dose: 400.0 mg/kg/injection, schedule: Q04DX003 (ip), vehicle: saline with Tween-80
[8] = endpoint: mean survival time, dose: 50.0 mg/kg/injection, schedule: Q04DX002 (ip), vehicle: Klucel (hydroxypropylcellulose) (HPC)
[9] = endpoint: mean survival time, dose: 100.0 mg/kg/injection, schedule: Q04DX002 (ip), vehicle: Klucel (hydroxypropylcellulose) (HPC)
[10] = endpoint: mean survival time, dose: 100.0 mg/kg/injection, schedule: Q01DX009 (ip), vehicle: saline
[11] = endpoint: mean survival time, dose: 200.0 mg/kg/injection, schedule: Q01DX009 (ip), vehicle: saline
[12] = endpoint: mean survival time, dose: 400.0 mg/kg/injection, schedule: Q01DX009 (ip), vehicle: saline
[13] = endpoint: mean survival time, dose: 200.0 mg/kg/injection, schedule: Q01DX001 (ip), vehicle: Klucel (hydroxypropylcellulose) (HPC)
[14] = endpoint: mean survival time, dose: 400.0 mg/kg/injection, schedule: Q01DX001 (ip), vehicle: Klucel (hydroxypropylcellulose) (HPC)
[15] = endpoint: mean survival time, dose: 100.0 mg/kg/injection, schedule: Q01DX001 (ip), vehicle: saline
[16] = endpoint: mean survival time, dose: 200.0 mg/kg/injection, schedule: Q01DX001 (ip), vehicle: saline
[17] = endpoint: mean survival time, dose: 400.0 mg/kg/injection, schedule: Q01DX001 (ip), vehicle: saline
[18] = endpoint: mean survival time, dose: 100.0 mg/kg/injection, schedule: Q04DX002 (ip), vehicle: saline with Tween-80
[19] = endpoint: mean survival time, dose: 200.0 mg/kg/injection, schedule: Q01DX009 (ip), vehicle: saline with Tween-80
[20] = endpoint: mean survival time, dose: 200.0 mg/kg/injection, schedule: Q04DX002 (ip), vehicle: saline with Tween-80
[21] = endpoint: mean survival time, dose: 400.0 mg/kg/injection, schedule: Q01DX009 (ip), vehicle: saline with Tween-80
[22] = endpoint: mean survival time, dose: 100.0 mg/kg/injection, schedule: Q04DX003 (ip), vehicle: saline
[23] = endpoint: mean survival time, dose: 200.0 mg/kg/injection, schedule: Q04DX003 (ip), vehicle: saline
[24] = endpoint: mean survival time, dose: 400.0 mg/kg/injection, schedule: Q04DX003 (ip), vehicle: saline

Measured: T/C

NNc1nncc(=O)[nH]1
inactive: [1] 103 % of control | [2] 103 % of control

CCCCn1c(O)c(C=N)c(=O)n(CCCC)c1=O
inactive: endpoint: mean survival time, dose: 25.0 mg/kg/injection, schedule: Q01DX009 (ip), vehicle: saline with Tween-80 101 % of control | [3] 90 % of control | [4] 101 % of control and 86 % of control | [5] 89 % of control | [6] 94 % of control | [7] 89 % of control

COC(=O)C1C2CC3c4[nH]c5cc(OC)ccc5c4CCN3CC2CC(O)C1OC (stereo not drawn)
inactive: [8] 96 % of control | [9] 90 % of control

O=C1NC(O)CCN1C1OC(CO)C(O)C1O (stereo not drawn)
inactive: endpoint: mean survival time, dose: 25.0 mg/kg/injection, schedule: Q01DX009 (ip), vehicle: saline 101 % of control | endpoint: mean survival time, dose: 50.0 mg/kg/injection, schedule: Q01DX009 (ip), vehicle: saline 113 % of control | endpoint: mean survival time, dose: 50.0 mg/kg/injection, schedule: Q01DX015 (ip), vehicle: saline 98 % of control | [10] 95 % of control | endpoint: mean survival time, dose: 100.0 mg/kg/injection, schedule: Q01DX015 (ip), vehicle: saline 94 % of control | [11] 110 % of control | [12] 90 % of control | endpoint: mean survival time, dose: 800.0 mg/kg/injection, schedule: Q01DX009 (ip), vehicle: saline 95 % of control | endpoint: median survival time, dose: 500.0 mg/kg/injection, schedule: Q01DX009 (ip), vehicle: saline 102 % of control | endpoint: median survival time, dose: 1000.0 mg/kg/injection, schedule: Q01DX009 (ip), vehicle: saline 94 % of control | endpoint: median survival time, dose: 2000.0 mg/kg/injection, schedule: Q01DX009 (ip), vehicle: saline 93 % of control

CCCCn1c(C)nc2c(N)cc(C(F)(F)F)cc21
inactive: [13] 100 % of control | [14] 111 % of control

CCCCCCCC[Si](CCCCCCCC)CCCCCCCC
inactive: endpoint: mean survival time, dose: 100.0 mg/kg/injection, schedule: Q04DX003 (ip), vehicle: acetone 95 % of control | endpoint: mean survival time, dose: 200.0 mg/kg/injection, schedule: Q04DX003 (ip), vehicle: acetone 91 % of control | endpoint: mean survival time, dose: 400.0 mg/kg/injection, schedule: Q04DX003 (ip), vehicle: acetone 98 % of control

c1ccc(CN2C3C(c4ccccc4)=NN=C(c4ccccc4)C32)cc1 (stereo not drawn)
inactive: [15] 98 % of control | [16] 102 % of control | [17] 102 % of control

O=C(Nc1ccc(Cl)cc1[N+](=O)[O-])OCC1CC2C=CC1C2 (stereo not drawn)
inactive: [1] 94 % of control and 87 % of control | [4] 94 % of control and 98 % of control | [18] 96 % of control and 97 % of control | [5] 94 % of control and 98 % of control | [2] 93 % of control and 102 % of control | [19] 100 % of control | [20] 97 % of control and 100 % of control | [6] 98 % of control and 101 % of control | endpoint: mean survival time, dose: 400.0 mg/kg/injection, schedule: Q01DX001 (ip), vehicle: saline with Tween-80 97 % of control and 101 % of control | [21] 100 % of control | endpoint: mean survival time, dose: 400.0 mg/kg/injection, schedule: Q04DX002 (ip), vehicle: saline with Tween-80 93 % of control and 87 % of control | [7] 100 % of control and 91 % of control

FC1(F)SC2C3CC(C4CCC=C43)C2C1(F)F (stereo not drawn)
inactive: endpoint: mean survival time, dose: 0.78 mg/kg/injection, schedule: Q01DX009 (ip), vehicle: Klucel (hydroxypropylcellulose) (HPC) 96 % of control | endpoint: mean survival time, dose: 1.56 mg/kg/injection, schedule: Q01DX009 (ip), vehicle: Klucel (hydroxypropylcellulose) (HPC) 93 % of control | endpoint: mean survival time, dose: 1.56 mg/kg/injection, schedule: Q04DX003 (ip), vehicle: Klucel (hydroxypropylcellulose) (HPC) 102 % of control | endpoint: mean survival time, dose: 3.13 mg/kg/injection, schedule: Q04DX003 (ip), vehicle: Klucel (hydroxypropylcellulose) (HPC) 100 % of control

c1csc([Si](c2cccs2)(c2cccs2)c2cccs2)c1
inactive: [18] 103 % of control | [20] 89 % of control

CCOC(=O)/C(O)=C\c1cc(Br)c(OC)cc1[N+](=O)[O-]
inactive: [15] 102 % of control | [22] 98 % of control | [16] 107 % of control | [23] 98 % of control | [17] 95 % of control | [24] 95 % of control

COc1cc2c(cc1O)C(OC)(OC)CCCC2
inactive: [3] 96 % of control | [4] 96 % of control | [19] 93 % of control

Cc1cc[n+](Cc2cc3ccccc3[nH]c2=O)cc1
inactive: endpoint: mean survival time, dose: 12.5 mg/kg/injection, schedule: Q01DX001 (ip), vehicle: saline 96 % of control | endpoint: mean survival time, dose: 25.0 mg/kg/injection, schedule: Q01DX001 (ip), vehicle: saline 100 % of control | endpoint: mean survival time, dose: 50.0 mg/kg/injection, schedule: Q01DX001 (ip), vehicle: saline 95 % of control

NC(=O)CC1=NCCc2ccccc21
inactive: [15] 108 % of control | [16] 108 % of control

Cc1ccc(NC(=S)NCCO)cc1
inactive: [5] 100 % of control | [6] 102 % of control | [7] 97 % of control

CC(C)=NC(=O)NO.[Cl][Ni][Cl]
inactive: endpoint: mean survival time, dose: 15.0 mg/kg/injection, schedule: Q01DX001 (ip), vehicle: saline 102 % of control | endpoint: mean survival time, dose: 30.0 mg/kg/injection, schedule: Q01DX001 (ip), vehicle: saline 110 % of control | endpoint: mean survival time, dose: 60.0 mg/kg/injection, schedule: Q01DX001 (ip), vehicle: saline 111 % of control | endpoint: mean survival time, dose: 75.0 mg/kg/injection, schedule: Q01DX001 (ip), vehicle: saline 116 % of control

C(=C/c1ccccc1)/C=C/C(=C/c1ccccc1)c1ccccc1
inactive: [5] 91 % of control | [6] 87 % of control and 96 % of control | [7] 87 % of control and 91 % of control

O=C1Nc2ccccc2/C1=C/Cl
inactive: endpoint: mean survival time, dose: 6.25 mg/kg/injection, schedule: Q04DX002 (ip), vehicle: saline with Tween-80 96 % of control | endpoint: mean survival time, dose: 12.5 mg/kg/injection, schedule: Q04DX002 (ip), vehicle: saline with Tween-80 100 % of control | endpoint: mean survival time, dose: 25.0 mg/kg/injection, schedule: Q04DX002 (ip), vehicle: saline with Tween-80 103 % of control

Nc1nc(N)c2[nH]c(CCCc3ccccc3)nc2n1
inactive: [8] 98 % of control | [9] 98 % of control | endpoint: mean survival time, dose: 200.0 mg/kg/injection, schedule: Q04DX002 (ip), vehicle: Klucel (hydroxypropylcellulose) (HPC) 98 % of control

O=c1cc(/C=N/Nc2ccc([N+](=O)[O-])cc2[N+](=O)[O-])c2cccc3c2n1CCC3
inactive: [4] 93 % of control | [5] 98 % of control | [6] 101 % of control | [21] 93 % of control | [7] 102 % of control

CCOC(=O)Nc1cccc(O)c1
inactive: [4] 91 % of control | [19] 103 % of control | [21] 92 % of control

COc1cccc(CO)c1-c1c(CO)cccc1OC
inactive: [22] 95 % of control | [23] 97 % of control | [24] 97 % of control

CN(C=O)c1cccc(C(=O)O)c1
inactive: endpoint: mean survival time, dose: 100.0 mg/kg/injection, schedule: Q01DX001 (ip), vehicle: Klucel (hydroxypropylcellulose) (HPC) 96 % of control | endpoint: mean survival time, dose: 100.0 mg/kg/injection, schedule: Q04DX003 (ip), vehicle: Klucel (hydroxypropylcellulose) (HPC) 103 % of control | [13] 94 % of control | endpoint: mean survival time, dose: 200.0 mg/kg/injection, schedule: Q04DX003 (ip), vehicle: Klucel (hydroxypropylcellulose) (HPC) 103 % of control | [14] 91 % of control | endpoint: mean survival time, dose: 400.0 mg/kg/injection, schedule: Q04DX003 (ip), vehicle: Klucel (hydroxypropylcellulose) (HPC) 97 % of control

O=C(O)CCC(=O)NCCNC(=O)CC(=O)O
inactive: [15] 100 % of control | [16] 105 % of control | [17] 100 % of control

CCOC(CN(Cc1ccc(OCc2ccccc2)c(OC)c1)S(=O)(=O)c1ccc(C)cc1)OCC
inactive: endpoint: mean survival time, dose: 25.0 mg/kg/injection, schedule: Q01DX009 (ip), vehicle: water 102 % of control | endpoint: mean survival time, dose: 50.0 mg/kg/injection, schedule: Q01DX009 (ip), vehicle: water 91 % of control | endpoint: mean survival time, dose: 100.0 mg/kg/injection, schedule: Q01DX009 (ip), vehicle: water 105 % of control | endpoint: mean survival time, dose: 200.0 mg/kg/injection, schedule: Q01DX009 (ip), vehicle: water 102 % of control | endpoint: mean survival time, dose: 400.0 mg/kg/injection, schedule: Q01DX009 (ip), vehicle: water 100 % of control

CC1=CC(=O)C=C(C(C)C)/C1=C(\c1ccccc1C(=O)O)c1c(C)cc(OP(=O)(O)O)cc1C(C)C
inactive: [10] 103 % of control | [22] 106 % of control | [11] 102 % of control | [23] 97 % of control | [12] 100 % of control | [24] 98 % of control
